Reference: patent US10023565B2, “N,N′ substituted piperidinamine compounds, and preparation method and usage thereof” (Institute of Pharmacology and Toxicology Academy of …, priority 2013, dated 2018)
Several values for one entry are separate records, joined by “and”; a condition that tells them apart may be missing. Equal entries are not always repeated. Where two headings read alike, the source gives them in different places.

Assay: Mice pharmacokinetic evaluation (LC-MS/MS of plasma)
Type: in vivo, ICR mice
Details: for in vivo absorption and elimination: intragastric administration to mice
Procedure: Mice pharmacokinetic evaluation of the compound of Example 36 according to the method described below
ICR mice, SPS grade, male, weighed […], license number SCXK (Beijing) 2012-0001, purchased from Beijing Vital River Laboratory Animal Technology Co. Ltd.
Chromatographic conditions: Analytical column: Capcell Pak MG, 5 μm particle size, 50×2.0 mm I.D. (Shiseido Co.), connected with C18 guard column, 4×3.0 mm I.D. (PhenomenexCo., USA), column temperature 25° C., mobile phase: acetonitrile −2 mM ammonium acetate (65:35, v/v), flow rate 0.3 ml/min, internal standard: loratadine.
MS conditions: Electrospray ionization source (Turbo Ionspray source), positive ion mode detection; spray voltage 4500 V; source temperature 400° C.; nebulizer gas (NEB) 8; curtain gas (CUR) 10; collision gas (CAD) 4; scanning mode: multiple reaction monitoring (MRM), ion reactions for quantitative analysis: m/z 354.4→m/z 154.1 (Mol, CE 43 V) and m/z 383→m/z 337 (internal standard loratadine, CE 32 V), scanning time 150 msec.
To 50 μl of plasma, were added 10 μl of internal standard solution (125 ng/ml aqueous solution of loratadine), and 500 μl of n-hexane-dichloromethane-isopropanol (100:50:5, v/v/v); they were uniformly mixed, followed by vortexing for 3 min, and centrifuging for 10 min (3000 rpm); the supernatant was taken and blow dried with air streamat 40° C.; the residue was dissolved with 150 μl […], and subjected to LC-MS/MS analysis.
30 ICR male mice were randomly divided into […], five mices each group, including Mol 10 mg/kg oral group and 1.0 mg/kg tail intravenous injection group. For oral group, before administration, the animals were fasted for 12 h, with free access to water; 0.08, 0.25, 0.5, 1, 2, 4, 6, 8, 12 and 24 h after intragastrical administration, 0.1 ml of orbital venous sinus blood was taken, placed in anticoagulation tube containing heparin sodium, and subjected to 3000 g centrifugation for 15 min; and then, the plasma was taken and stored in a −20° C. refrigerator. […]
Pharmacokinetic parameters were calculated using non-compartment model of Winnonlin® software (Version 5.2.1, USA). Cmax is the measured maximum plasma concentration, Tmax is time to peak plasma concentration after oral administration, t1/2 is drug terminal elimination halflife, MRT is average residence time of drug in vivo, the area AUC0-t under plasma concentration—time curve is calculated by trapezoidal method.
Bioavailability is calculated as follows: […]
AUC: Area (h*ng/ml) under the curve; D: dose (mg/kg)

[1] = IV 1.0 mg/kg, individual mice 4-6, listed as Mol, 1 mg/kg
[2] = Po 10 mg/kg, individual mice 1-3, listed as Mol, 10 mg/kg
[3] = male, ICR, mouse, plasma, iv, 1 mg/kg, IV 1.0 mg/kg, Mean ± SD, n = 3
[4] = male, ICR, mouse, plasma, iv, 1 mg/kg, IV 1.0 mg/kg, individual mice 4-6

CSc1nccc(N2CCC(N(C)Cc3ccc(C#N)cc3)CC2)n1 [Example 36, N-methyl-N-(4-cyanobenzyl)-N-[1-(2-methylthiopyrimidin-4-yl)piperidin-4-yl]amine]
Ke (IV 1.0 mg/kg, Mean ± SD, n = 3): 0.97 ± 0.88 h⁻¹ | AUC0-∞ [1]: 37.81 ng·h/mL and 58.27 ng·h/mL | Cmax [1]: 63.90 ng/mL and 71.35 ng/mL | Ke [1]: 1.98 h⁻¹ and 0.51 h⁻¹ and 0.43 h⁻¹ | MRT0-t [1]: 0.42 h and 1.02 h and 2.40 h | MRT0-∞ [1]: 0.46 h and 1.35 h and 2.71 h | Tmax [1]: 0.03 h (2×) and 0.08 h | t1/2 [1]: 0.35 h and 1.37 h and 1.62 h | F (bioavailability) (Po 10 mg/kg vs IV 1.0 mg/kg, individual mice 1-3, listed as Mol): 43.20% and 63.94% and 59.39% | Ke (Po 10 mg/kg, Mean ± SD, n = 3): 0.43 ± 0.33 h⁻¹ | Cmax (Po 10 mg/kg, Mean ± SD, n = 3, listed as Mol, 10 mg/kg): 260.2 ± 63.19 ng/mL | AUC0-∞ [2]: 317.86 ng·h/mL and 305.15 ng·h/mL | Cmax [2]: 260.48 ng/mL and 323.37 ng/mL | Ke [2]: 0.40 h⁻¹ and 0.77 h⁻¹ and 0.13 h⁻¹ | MRT0-t [2]: 1.26 h and 0.93 h and 2.56 h | MRT0-∞ [2]: 1.34 h and 0.95 h and 3.57 h | Tmax [2]: 0.08 h and 1.00 h and 0.25 h | t1/2 [2]: 1.74 h and 0.90 h and 5.53 h | in vivo absorption and elimination (10 mg/kg): in vivo absorption and elimination of the compound both are faster | in vivo absorption and elimination (10 mg/kg, listed as Mol): the vivo absorption and elimination after intragastrical administration to mice both were quite fast | Plasma concentration of active compound (intravenous 1.0 mg/kg, 0.03 h, individual mice 4-6, listed as Mol, 1 mg/kg): 99.34 ng/mL and 9.23 ng/mL and 71.35 ng/mL | Plasma concentration of active compound (intravenous 1.0 mg/kg, 0.08 h, individual mice 4-6, listed as Mol, 1 mg/kg): 63.90 ng/mL and 63.03 ng/mL | Plasma concentration of active compound (intravenous 1.0 mg/kg, 0.17 h, individual mice 4-6, listed as Mol, 1 mg/kg): 56.30 ng/mL and 52.58 ng/mL | Plasma concentration of active compound (intravenous 1.0 mg/kg, 0.5 h, individual mice 4-6, listed as Mol, 1 mg/kg): 48.72 ng/mL and 24.29 ng/mL and 21.45 ng/mL | Plasma concentration of active compound (intravenous 1.0 mg/kg, 1.0 h, individual mice 4-6, listed as Mol, 1 mg/kg): 10.10 ng/mL and 3.94 ng/mL and 7.02 ng/mL | Plasma concentration of active compound (intravenous 1.0 mg/kg, 2.0 h, individual mice 4-6, listed as Mol, 1 mg/kg): 2.35 ng/mL and 0.95 ng/mL and 1.99 ng/mL | Plasma concentration of active compound (intravenous 1.0 mg/kg, 4.0 h, individual mice 4-6, listed as Mol, 1 mg/kg): 2.23 ng/mL | Plasma concentration of active compound (intravenous 1.0 mg/kg, 8.0 h, individual mice 4-6, listed as Mol, 1 mg/kg): 0.98 ng/mL | AUC(0-inf) [3]: 51.2 ± 11.6 ng·h/mL | AUC(0-t) [3]: 49.6 ± 11.4 ng·h/mL | half-life [3]: 1.11 ± 0.67 h | Cmax (male, ICR, mouse, plasma, iv, 1 mg/kg, IV 1.0 mg/kg, Mean ± SD, n = 3, read-out: Cmax): 78.1 ± 18.7 ng/mL | MRT last (male, ICR, mouse, plasma, iv, 1 mg/kg, IV 1.0 mg/kg, Mean ± SD, n = 3, read-out: MRT0-t): 1.28 ± 1.01 h | MRT inf (male, ICR, mouse, plasma, iv, 1 mg/kg, IV 1.0 mg/kg, Mean ± SD, n = 3, read-out: MRT0-∞): 1.51 ± 1.13 h | Tmax (male, ICR, mouse, plasma, iv, 1 mg/kg, IV 1.0 mg/kg, Mean ± SD, n = 3, read-out: Tmax): 0.05 ± 0.03 h | AUC(0-inf) [4]: 57.6 ng·h/mL | AUC(0-t) [4]: 56.4 ng·h/mL | Cmax (male, ICR, mouse, plasma, iv, 1 mg/kg, IV 1.0 mg/kg, individual mice 4-6, read-out: Cmax): 99.3 ng/mL | concentration at 0.03 h (male, ICR, mouse, plasma, iv, 1 mg/kg, intravenous 1.0 mg/kg, 0.03 h, Mean, read-out: Plasma concentration of active compound): 60 ng/mL | concentration at 0.08 h (male, ICR, mouse, plasma, iv, 1 mg/kg, intravenous 1.0 mg/kg, 0.08 h, Mean, read-out: Plasma concentration of active compound): 74.5 ng/mL | concentration at 0.08 h (male, ICR, mouse, plasma, iv, 1 mg/kg, intravenous 1.0 mg/kg, 0.08 h, individual mice 4-6, read-out: Plasma concentration of active compound): 96.6 ng/mL
